This note sets out measurements from patent US11464770B2, “Anticancer pharmaceutical composition” (NATIONAL CANCER CENTER, priority 2016, dated 2022).

Like-named read-outs stand apart in the source and are kept apart here.

The subject of this assay is colorectal cancer cell lines (e.g. DLD-1, HCT 116, SW620, HCT-15, HCT-8, RKO). Briefly: Cell based assay, cell viability (CellTiter-Glo), colorectal cancer cell lines. The method in brief:
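Plated cells (24 h) → compound to 0–2 μM final → 72 h → CellTiter-Glo ATP luminescence.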

Where [1] appears, read: Homo sapiens, DLD-1, 72 hours treatment, read-out: IC50, colorectal cancer cell line DLD-1.
Setting [2] is: Homo sapiens, HCT 116, 72 hours treatment, read-out: IC50, colorectal cancer cell line HCT 116.
[3] abbreviates: Homo sapiens, HCT-8, 72 hours treatment, read-out: IC50, colorectal cancer cell line HCT-8.
Where [4] appears, read: Homo sapiens, HCT-15, 72 hours treatment, read-out: IC50, colorectal cancer cell line HCT-15.
Setting [5] is: Homo sapiens, HT-29, 72 hours treatment, read-out: IC50, colorectal cancer cell line HT-29.
[6] abbreviates: Homo sapiens, LoVo, 72 hours treatment, read-out: IC50, colorectal cancer cell line LoVo.
Where [7] appears, read: Homo sapiens, SW480, 72 hours treatment, read-out: IC50, colorectal cancer cell line SW480.
The mark [8] stands for this setting: Homo sapiens, SW-620, SW620, 72 hours treatment, read-out: IC50, colorectal cancer cell line SW620.
[9] abbreviates: RKO, 72 hours treatment, read-out: IC50, colorectal cancer cell line RKO.
The mark [10] stands for this setting: Homo sapiens, DLD-1 cells, 72 hours treatment, read-out: IC50, colorectal cancer cell line DLD-1.
The mark [11] stands for this setting: Homo sapiens, HCT 116 cells, 72 hours treatment, read-out: IC50, colorectal cancer cell line HCT 116.
Setting [12] is: Homo sapiens, HCT-8 cells, 72 hours treatment, read-out: IC50, colorectal cancer cell line HCT-8.
The mark [13] stands for this setting: Homo sapiens, HCT-15 cells, 72 hours treatment, read-out: IC50, colorectal cancer cell line HCT-15.
The mark [14] stands for this setting: Homo sapiens, HT-29 cells, 72 hours treatment, read-out: IC50, colorectal cancer cell line HT-29.
Where [15] appears, read: Homo sapiens, LoVo cells, 72 hours treatment, read-out: IC50, colorectal cancer cell line LoVo.
Setting [16] is: Homo sapiens, RKO cells, 72 hours treatment, read-out: IC50, colorectal cancer cell line RKO.
Where [17] appears, read: Homo sapiens, SW480 cells, 72 hours treatment, read-out: IC50, colorectal cancer cell line SW480.
Where [18] appears, read: Homo sapiens, SW-620, SW620 cells, 72 hours treatment, read-out: IC50, colorectal cancer cell line SW620.

For the molecule `CC(=O)c1c(S(=O)(=O)Cc2ccccc2)[nH]c2c(Br)ccc(Cl)c2c1=O` [Compound 34, 3-acetyl-2-(benzylsulfonyl)-8-bromo-5-chloroquinolin-4(1H)-one], the IC50 runs as follows: under setting [1], 1320 nM; under setting [2], 1840 nM; under setting [3], more than 2000 nM; under setting [4], 1950 nM; under setting [5], more than 10000 nM; under setting [6], more than 2000 nM. For the same molecule, the IC50 runs as follows: under setting [7], more than 2000 nM; under setting [8], 1870 nM; under setting [9], more than 2000 nM.

In the case of `CC(=O)c1c([S+]([O-])Cc2ccc(C(F)(F)F)o2)[nH]c2c(Br)ccc(Cl)c2c1=O` (stereo not drawn) [Compound 72, 3-acetyl-8-bromo-5-chloro-2-(((5-(trifluoromethyl)furan-2-yl)methyl)sulfinyl)quinolin-4(1H)-one], the IC50 by setting is: under setting [1], 740 nM; under setting [2], 940 nM; under setting [3], 1240 nM; under setting [4], 990 nM; under setting [5], more than 2000 nM; under setting [6], 1920 nM. Further, the IC50 is, setting by setting: under setting [7], 1410 nM; under setting [8], 1240 nM; under setting [9], 1350 nM.

`CC(=O)c1c([S+]([O-])Cc2cc(F)cc(F)c2)[nH]c2c(Br)ccc(Cl)c2c1=O` (stereo not drawn) [Compound 46, 3-acetyl-8-bromo-5-chloro-2-((3,5-difluorobenzyl)sulfinyl)quinolin-4(1H)-one]: the concentration for half-maximal inhibition (IC50) under setting [1] was 1260 nM; the IC50 under setting [2] is 1820 nM; the IC50 under setting [3] is more than 2000 nM; the IC50 under setting [4] came out at 1940 nM; the IC50 under setting [5] was more than 10000 nM; the IC50 under setting [6] is more than 2000 nM. Besides, the IC50 by setting is: under setting [7], more than 2000 nM; under setting [8], 1750 nM; under setting [9], 1830 nM.

For `CC(=O)c1c([S+]([O-])Cc2ccc([N+](=O)[O-])cc2)[nH]c2c(Cl)ccc(Cl)c2c1=O` (stereo not drawn) [Compound 57, 3-acetyl-5,8-dichloro-2-((4-nitrobenzyl)sulfinyl)quinolin-4(1H)-one], the 50% inhibitory concentration (IC50) under setting [1] was more than 2000 nM; the concentration for half-maximal inhibition (IC50) under setting [2] is more than 2000 nM; the IC50 under setting [3] was more than 2000 nM; the IC50 under setting [4] is more than 2000 nM; the IC50 under setting [5] is more than 10000 nM; the IC50 under setting [6] is more than 2000 nM. Moreover, the IC50 reads like this: under setting [7], more than 2000 nM; under setting [8], more than 2000 nM; under setting [9], more than 2000 nM.

Take `CC(=O)c1c([S+]([O-])Cc2ccc([N+](=O)[O-])cc2)[nH]c2c(Br)ccc(Cl)c2c1=O` (stereo not drawn) [Compound 33, 3-acetyl-8-bromo-5-chloro-2-((4-nitrobenzyl)sulfinyl)quinolin-4(1H)-one]: the IC50 by setting is: under setting [1], 940 nM; under setting [2], 1330 nM; under setting [3], 1650 nM; under setting [4], 1530 nM; under setting [5], more than 10000 nM; under setting [6], more than 2000 nM. The half-inhibitory concentration (IC50) under setting [7] was more than 2000 nM, the IC50 under setting [8] turned out to be 1510 nM and the IC50 under setting [9] was found to be 1500 nM.

For the molecule `CC(=O)c1c([S+]([O-])Cc2ccc(C(C)(C)C)cc2)[nH]c2c(Br)ccc(Cl)c2c1=O` (stereo not drawn) [Compound 60, 3-acetyl-8-bromo-2-((4-(tert-butyl)benzyl)sulfinyl)-5-chloroquinolin-4(1H)-one], the IC50 is 1480 nM under setting [1]; 1940 nM under setting [2]; more than 2000 nM under setting [3]; 1800 nM under setting [4]; more than 10000 nM under setting [5]; more than 2000 nM under setting [6]. The half-maximal inhibitory concentration (IC50) was more than 2000 nM under setting [7], more than 2000 nM under setting [8] and more than 2000 nM under setting [9].

In the case of `COc1cc(S(F)(F)(F)(F)F)ccc1C[S+]([O-])c1[nH]c2c(Br)ccc(Cl)c2c(=O)c1C(C)=O` (stereo not drawn) [Compound 75, 3-acetyl-8-bromo-5-chloro-2-((2-methoxy-4-(pentafluoro--sulfanyl)benzyl)sulfinyl)quinolin-4(1H)-one], the IC50 under setting [1] turned out to be 880 nM; the IC50 under setting [2] worked out at 1250 nM; the IC50 under setting [3] was determined as 1780 nM; the IC50 under setting [4] came to 1390 nM; the IC50 under setting [5] is more than 10000 nM; the IC50 under setting [6] was more than 2000 nM. Moreover, the IC50 is, setting by setting: under setting [7], 1660 nM; under setting [8], 1760 nM; under setting [9], 1320 nM.

Consider `COC(=O)c1ccc(C[S+]([O-])c2[nH]c3c(Cl)ccc(Cl)c3c(=O)c2C(C)=O)o1` (stereo not drawn) [Compound 89, methyl 5-(((3-acetyl-5,8-dichloro-4-oxo-1,4-dihydroquinolin-2-yl)sulfinyl)methyl)furan-2-carboxylate], for which the IC50 is 1640 nM under setting [10]; 1590 nM under setting [11]; more than 2000 nM under setting [12]; more than 2000 nM under setting [13]; more than 10000 nM under setting [14]; more than 2000 nM under setting [15]. The half-maximal inhibitory concentration (IC50) by setting is: under setting [16], 1720 nM; under setting [17], more than 2000 nM; under setting [18], 1700 nM.

Regarding `CC(=O)c1c([S+]([O-])Cc2c(F)c(F)c(F)c(F)c2F)[nH]c2c(Br)ccc(Cl)c2c1=O` (stereo not drawn) [Compound 78, 3-acetyl-8-bromo-5-chloro-2-(((perfluorophenyl)methyl)sulfinyl)quinolin-4(1H)-one], the IC50 by setting is: under setting [1], 1280 nM; under setting [2], 1930 nM; under setting [3], more than 2000 nM; under setting [4], 1590 nM; under setting [5], more than 10000 nM; under setting [6], more than 2000 nM. Besides, the IC50 by setting is: under setting [7], more than 2000 nM; under setting [8], 1760 nM; under setting [9], 1500 nM.

For `Cc1cc(C[S+]([O-])c2[nH]c3c(Cl)ccc(Cl)c3c(=O)c2C(=O)C(C)C)no1` (stereo not drawn) [Compound 86, 5,8-dichloro-3-isobutyryl-2-(((5-methylisoxazol-3-yl)methyl)sulfinyl)quinolin-4(1H)-one], the half-maximal inhibitory concentration (IC50) is, setting by setting: under setting [10], 1090 nM; under setting [11], 860 nM; under setting [12], 1110 nM; under setting [13], 1260 nM; under setting [14], more than 10000 nM; under setting [15], 1150 nM. Also, the IC50 by setting is: under setting [16], 890 nM; under setting [17], 1270 nM; under setting [18], 740 nM.
